Experimental findings from article PMC7725785, “TRIB3 promotes MYC-associated lymphoma development through suppression of UBE3B-mediated MYC degradation” (Nature Communications, 2020) are described below.

Series [1] can be described thus: Serum ALT, AST, UREA and CRE (liver and renal function) in treated Myc^Eμ mice. As to conditions: UREA, CRE, result in words.
Source text: The serum alanine transaminase (ALT) and aspartate transaminase (AST) levels of MycEµ mice with the indicated
treatment were detected to evaluate liver function (n = 6 per group). Data are represented as means ± SEM. (b) Th e
serum UREA and creatinine (CRE) levels of MycEµ mice with the indicated treatment were detected to evaluate
renal function (n = 6 per group). Data are represented as means ± SEM.
The subject of another series is DLBCL^T69 PDX. Description: PDX model tumor growth and weight, DLBCL T69. As to conditions: result in words. The class given is in vivo, human. The method, then: Four 5-week-old male NSG mice were implanted subcutaneously with 200 μl of a 1:1 mixture of Matrigel® Basement Membrane Matrix High Concentration (Corning, 354230) and minced fresh tumor fragments resected from lymphoma patients. Approximately 3–4 weeks following implantation, the first-generation mice (G1) were killed, and tumor masses were isolated. The tumor cells were tested for human CD19 (BCL) or CD3 expression (T cell lymphoma), and the remaining tumor mass was cut into 3-mm^3 sections and passaged into 4–5 NSG mice as the second generation (G2). After stable passage of the third generation (G3), the tumor mass of the fourth generation (G4) was equally cut into 3-mm^3 pieces and then passaged subcutaneously into 30–50 NSG mice (100 μl of a 1:2 mixture of Matrigel and tumor tissue) for in vivo treatment (6–8 mice per group, dependent on the experimental drug treatment). During and after treatment with the vehicle control or the indicated agent, tumor burden was evaluated by measuring the tumor volume to determine the therapeutic efficacy in the PDX models. […]
(§1) To evaluate the survival rate, these mice were monitored for 8 months (Myc^Eμ mice). […] During the indicated treatments, tumor burden was evaluated by measuring the tumor volume to determine the therapeutic efficacy in the PDX models.

The test system of a further series is primary mouse BCL cells. Description: Serial colony formation of primary mouse BCL cells from Myc^Eμ mice. The class given is cell-based. As to conditions: result in words. The text has this:
Mouse and human lymphoma cells formed colonies upon serum culture (P1). Single colonies of lymphoma cells were dispersed in methylcellulose-based medium MethoCul^TM M3630 (StemCell, 03630) or MethoCult™SF H4536 (StemCell, 04536). A representative plate was then washed and cells were resuspended and replated. After an additional 14 days, colonies were counted (P2).

The subject of another series is MYC target genes. Description: qRT-PCR of MYC target genes. The following applies: qRT-PCR and RNA-seq; result in words. The class given is cell-based, human. The method, then:
Total RNA was extracted using TRIzol (Invitrogen, CA, USA) according to the manufacturer’s instructions. Reverse transcription of total cellular RNA was carried out using oligo (dT) primers and M-MLV reverse transcriptase (Transgen Biotech, Beijing, China). PCR was performed using a Mycycler thermal cycler and analyzed using LineGene9600. The PCR primer sequences were as follows: MYC forward, 5′-[…]-3′; MYC reverse, 5′-[…]-3′; GAPDH forward, 5′-[…]-3′; GAPDH reverse, 5′-[…]-3′; TFAP4 forward, 5′-[…]-3′, TFAP4 reverse, 5′-[…]-3′; PLD6 forward, 5′-[…]-3′, PLD6 reverse, 5′-[…]-3′; CCNA1 forward, 5′-[…] GCAG-3′, CCNA1 reverse, 5′-[…]-3′; CCND1 forward, 5′-CCGTCC […]-3′, CCND1 reverse, 5′-[…]-3′; CCNE2 forward, 5′-TTC […]-3′; and CCNE2 reverse, 5′-[…]-3′. The human FBXW7 siRNA sequence was 5′-[…]-3′, the human MYC siRNA sequence was 5′-[…] GCGAA-3′, and the human HUWE1 siRNA sequence was 5′-[…]-3’. TRIB3 siRNAs were produced by RiboBio (Guangzhou, China) and transfected using Lipofectamine RNA interference MAX Transfection Reagent (Life Technologies, CA, USA) according to the manufacturer’s instructions.
For orientation: Real-time PCR tracks product formation cycle by cycle.

For another series, the system named is RNAPII. Nature of the series: ChIP-seq of RNAPII occupancy in Raji cells. The format is cell-based, human. As to conditions: ChIP-seq with spike-in, result in words. The method, then:
ChIP assays were performed according to the manufacturer’s protocol using a SimpleChIP® Plus Sonication Chromatin IP Kit (Cell Signaling Technology, Danvers, MA, USA, (#56383). Briefly, cells were fixated with 1% formaldehyde (Sigma Aldrich, F8775) for 8 min, incubated with glycine (50 mM final) for 10 min and washed three times with PBS. After cell lysis and chromatin extraction, chromatin was sonicated to 100–500 bp using a BioRuptor sonicator (Diagenode), followed by centrifugation at 16,000×g for 10 min at 4 °C. To control for experimental variation, our spike-in data were normalized to a spike-in control consisting of a small amount of chromatin from another species. Briefly, Baf3 cell lysates were sonicated exactly as described above and added at a 1:100 ratio of Raji cells to lysates. […] The Qubit® 3.0 A fluorometer was used for quantitation of the ChIP library. […]
The ChIP libraries were sequenced on Illumina HiSeq platform in 150 bp paired-end reads. After quality control, the clean reads were aligned to the human reference genome (Homo sapiens. GRCh38.87v2) with Bowtie v2.1.0. Unambiguously mapped reads were retained for subsequent generation of binding profiles, heatmaps and calling of peaks. […] Mapped reads were visualized using the Integrative Genomics Viewer (IGV). We next used the murine spike-in to quantitatively normalize different samples. […]

In a further series the test system is Myc^Eμ BCL mice. Nature of the series: Kaplan-Meier survival of Myc^Eμ BCL mice treated with DOX and peptide. The format is in vivo, mouse. The following applies: DOX 2 mg/kg i.p. once a week and PCM4 5 mg/kg i.v. three times a week, 3 months, result in words. The method, then:
as §1

Series [2] deals with lymphoma and leukemia cells. Description: Cell viability (CCK-8) of lymphoma and leukemia cells with PCM4. The format is cell-based, human. The following applies: result in words.

Regarding “HLYVSPWGGKRREQLKHKLEQLR [PCM4, fused peptide generated by linking CM4 to a cell-penetrating peptide]”, the “toxic effects (renal/liver function assays)” value in series [1] is “did not exert obvious toxic effects”. Further, the “growth and weights of tumors, combination of PCM4 and DOX” value in the series on DLBCL^T69 PDX (PDX T69 (high TRIB3 and MYC expression), PCM4 5 mg/kg and DOX 2 mg/kg) was “further decreased the growth and weights of tumors”. Besides, in the series with DLBCL^T69 PDX (PDX T69, NSG mice, PCM4 5 mg/kg i.v. three times a week), the “tumor growth of PDX” value is “inhibited the tumor growth”. The “intrinsic clonogenicity of primary mouse BCL cells” value in the series on primary mouse BCL cells is listed as “reduced the intrinsic clonogenicity”. In the series on MYC target genes, the “transcription of MYC target genes” value is “suppressed the transcription of MYC target genes”. The “association of RNAPII with promoters” value in the series with RNAPII is on record as “globally reduced the association of RNAPII with promoters”. Further, the “therapeutic efficacy / survival rate in combination with DOX” value in the series with Myc^Eμ BCL mice was “enhanced the therapeutic efficacy of DOX”. For the same sequence, the “proliferation of lymphoma and leukemia cells” value in series [2] is “inhibited the proliferation of most lymphoma and leukemia cells in a time-dependent manner”.
